Source: ChEMBL document CHEMBL3392924, “MMV box selection for compounds with potential use in combination with artemisinin using S. cerevisiae”

System: Saccharomyces cerevisiae
Experiment: Assay utilized the disc diffusion method with the observance of a clear zone indicating inhibition of growth. Synthetic complete medium containing 3% glycerol as a carbon source (SCG) was used in each assay. 10 uL of each compound was added to a paper disc which was placed on SCG and SCG+Artemisinin (0.2 uM) plates seeded with 10e6 yeast cells (WC081 strain: Mat a, leu2 delta 0, lys2 delta 0, ura3 delta 0, his3 delta 1, pdr1 delta::HIS3, pdr3 delta::kanMX4, derived from BY4742, regulators of Multi-drug resistance transporters have been deleted to enhance toxicity of compounds). Plates were incubated at 30 degrees C for 5 days and clear zones were measured. Compounds that produced a larger clear zone in the presence of artemisinin was considered to have an additive interaction with artemisinin. Results are reported as diameter of clear zone on SCG+artemisinin plates - diameter of clear zone on SCG plates without artemisinin.
Assay type: organism-based
Details: in vivo, 120 h

SMILES: O=C(NCC(c1ccsc1)N1CCCCCC1)c1ccc(C(F)(F)F)cc1 (centres undefined)
- Diameter of inhibition zone: 0 mm

SMILES: CN1CCN(c2ccc(Nc3c4ccccc4nc4ccccc34)cc2)CC1
- Diameter of inhibition zone: 0 mm

SMILES: COc1ccccc1NC1=C(N2CCCCC2)C(=O)c2ccccc2C1=O
- Diameter of inhibition zone: 0 mm

SMILES: Cc1cc(NCCN2CCCCC2)c2ccc3ccccc3c2n1
- Diameter of inhibition zone: 0 mm

SMILES: COc1ccc2c(=O)cc(C(Cl)(Cl)Cl)oc2c1
- Diameter of inhibition zone: 0 mm

SMILES: Cc1ccc(-c2cc3c(SCC(=O)Nc4cc(C(F)(F)F)ccc4Cl)nccn3n2)cc1
- Diameter of inhibition zone: 0 mm

SMILES: COc1ccccc1CNC(=O)CCn1c(=O)[nH]c2ccccc2c1=O
- Diameter of inhibition zone: 0 mm

SMILES: OC(CNC1CCCCC1)Cn1c2ccccc2c2ccccc21 (centres undefined)
- Diameter of inhibition zone: 0 mm

SMILES: CCCc1cc(O)c2c3c(c(=O)oc2c1)CN(C)CC3
- Diameter of inhibition zone: 0 mm

SMILES: CC1CN(C(=O)c2sc3ccccc3c2Cl)CC(C)O1 (centres undefined)
- Diameter of inhibition zone: 0 mm

SMILES: COc1ccc(C=C2SC(=N)N(c3ccccc3OC)C2=O)cc1
- Diameter of inhibition zone: 0 mm

SMILES: Cl.Oc1ccccc1CNCC12CC3CC(CC(C3)C1)C2
- Diameter of inhibition zone: 0 mm

SMILES: Cc1cc(NC(=O)C2c3ccccc3C(=O)N(CC(C)C)C2c2cccs2)no1 (centres undefined)
- Diameter of inhibition zone: 0 mm

SMILES: CCCN(CCC)CC(O)COc1ccccc1C(=O)Nc1ccccc1 (centres undefined)
- Diameter of inhibition zone: 0 mm

SMILES: COc1ccc(-n2ccnc2SCC(=O)Nc2cc(C)ccc2C)c(OC)c1
- Diameter of inhibition zone: 0 mm

SMILES: CCc1c(C)c(=N)c2ccccc2n1C.I
- Diameter of inhibition zone: 0 mm

SMILES: CCOc1cc2c(cc1OCC)C(c1cc(OC)c(O)cc1Cl)NCC2 (centres undefined)
- Diameter of inhibition zone: 0 mm

SMILES: COc1ccc(C(C)=O)cc1N1C(=O)C2C(C1=O)C1(c3ccccc3)C(=O)C2(c2ccccc2)C(c2ccc(C)cc2)=C1c1ccc(C)cc1 (centres undefined)
- Diameter of inhibition zone: 0 mm

SMILES: Cc1cccc(Nc2nc(N)c3ccccc3n2)c1.Cl
- Diameter of inhibition zone: 0 mm

SMILES: COc1ccccc1CNC(=O)CCn1c(=O)[nH]c2ccsc2c1=O
- Diameter of inhibition zone: 0 mm

SMILES: COc1cc(OC)c(N(C)C(=O)c2cc3c(s2)-c2ccccc2S(=O)(=O)C3)cc1Cl
- Diameter of inhibition zone: 0 mm

SMILES: COc1ccc(-c2nc(NC(=O)CS(=O)(=O)c3ccc(F)cc3)sc2C)cc1
- Diameter of inhibition zone: 0 mm

SMILES: CCOC(=O)c1cn(CC)c2cc(N3CCCCC3)c(F)cc2c1=O
- Diameter of inhibition zone: 0 mm

SMILES: Cc1cc(C)c2c(c1)OCN(Cc1ccccc1Cl)C2
- Diameter of inhibition zone: 0 mm

SMILES: COc1ccc(NC(=O)C2c3ccccc3C(=O)N(CC(C)C)C2c2cccs2)cc1Cl (centres undefined)
- Diameter of inhibition zone: 0 mm

SMILES: Cc1cc(Nc2ccc(Cl)cc2)n2nc(C(F)(F)F)nc2n1
- Diameter of inhibition zone: 0 mm

SMILES: COc1ccc(-c2nc3cc(Cc4ccc5[nH]c(-c6ccc(OC)cc6)nc5c4)ccc3[nH]2)cc1
- Diameter of inhibition zone: 0 mm

SMILES: c1ccc2cc3c(Nc4ccc(N5CCOCC5)cc4)ccnc3cc2c1
- Diameter of inhibition zone: 0 mm

SMILES: Cc1ccc(Nc2nc(NCCO)c3ccccc3n2)cc1C
- Diameter of inhibition zone: 0 mm

SMILES: CCOC(=O)c1ccc2[nH]c(-c3ccccc3)cc(=O)c2c1
- Diameter of inhibition zone: 0 mm

SMILES: COc1ccc2c(c1)OC(O)(C(F)(F)C(F)(F)F)CC2=O (centres undefined)
- Diameter of inhibition zone: 0 mm

SMILES: CCCCCC(=O)N1c2ccccc2N=C2CC(c3ccc(OC)c(OC)c3)CC(O)=C2C1c1ccc(C(F)(F)F)cc1 (centres undefined)
- Diameter of inhibition zone: 0 mm

SMILES: CCOc1ccc(-c2nonc2NC(=O)c2cccc(C)c2)cc1OCC
- Diameter of inhibition zone: 0 mm

SMILES: CCN1CCN(Cc2ccc(NC(=O)c3cc4ccc5cccnc5c4[nH]3)cc2)CC1
- Diameter of inhibition zone: 0 mm

SMILES: CC(C)(C)c1ccc(O)c(CNC2CCCCC2)c1
- Diameter of inhibition zone: 0 mm

SMILES: CCn1c(CN2CCN(Cc3ccccc3)CC2)nc2cc(NC(=O)c3cccs3)ccc21
- Diameter of inhibition zone: 0 mm

SMILES: CCC1(C)CC(CCNCc2ccccc2O)(c2ccc(C)cc2)CCO1 (centres undefined)
- Diameter of inhibition zone: 0 mm

SMILES: Cc1cc(Nc2ccc3ccccc3c2)n2ncnc2n1
- Diameter of inhibition zone: 7 mm

SMILES: O=[N+]([O-])c1ccc(C=NNc2nc3ccccc3[nH]2)cc1
- Diameter of inhibition zone: 0 mm

SMILES: Cc1cc(Nc2ccc(C)c(Cl)c2)n2nc(C(F)(F)F)nc2n1
- Diameter of inhibition zone: 0 mm

SMILES: COc1ccc(-c2cc3c(SCC(=O)Nc4cc(C(F)(F)F)ccc4Cl)nccn3n2)cc1
- Diameter of inhibition zone: 0 mm

SMILES: COc1ccc(NC(=O)C2c3ccccc3C(=O)N(CC(C)C)C2c2cccs2)cc1 (centres undefined)
- Diameter of inhibition zone: 0 mm

SMILES: CCC(c1ccccc1)c1nn2c(-c3cccs3)nnc2s1 (centres undefined)
- Diameter of inhibition zone: 0 mm

SMILES: CC1CCN(Cc2ccc(NC(=O)c3cc4ccc5cccnc5c4[nH]3)cc2)CC1
- Diameter of inhibition zone: 0 mm

SMILES: CNCCCNc1ccnc2cc(Cl)ccc12
- Diameter of inhibition zone: 0 mm

SMILES: COc1cccc(NC(=O)[C@H](C(C)C)n2c(=O)[nH]c3ccccc3c2=O)c1
- Diameter of inhibition zone: 0 mm

SMILES: COc1cccc(C=Cc2nc(=O)c3ccccc3o2)c1OC
- Diameter of inhibition zone: 0 mm

SMILES: C=CC12CCN(CC1)C(C(O)c1ccnc3ccc(OC)cc13)C2.Cl (centres undefined)
- Diameter of inhibition zone: 0 mm

SMILES: COc1ccc(C(=O)Nc2nonc2-c2ccc(OC)c(OC)c2)cc1Cl
- Diameter of inhibition zone: 0 mm

SMILES: CN(C)CCCNc1c2ccccc2nc2ccccc12
- Diameter of inhibition zone: 0 mm

SMILES: CN(C)c1ccc(C=Cc2nc(=O)c3ccccc3o2)cc1
- Diameter of inhibition zone: 0 mm

SMILES: CCN(CC)CCNc1ncnc2c1[nH]c1ccc(Cl)cc12
- Diameter of inhibition zone: 0 mm

SMILES: C[n+]1c2ccccc2nc2ccc(NCCO)cc21
- Diameter of inhibition zone: 0 mm

SMILES: CCOC(=O)c1cn(CC)c2cc(N(C)CCc3ccc(OC)c(OC)c3)c(F)cc2c1=O
- Diameter of inhibition zone: 0 mm

SMILES: CCCCCCOC(=O)C1=C(C)NC(=O)NC1c1ccccc1F (centres undefined)
- Diameter of inhibition zone: 0 mm

SMILES: Cc1ccc(N2C(=O)C3C(C2=O)C2(c4ccccc4)C(=O)C3(c3ccccc3)C(c3ccccc3)=C2c2ccccc2)cc1 (centres undefined)
- Diameter of inhibition zone: 0 mm

SMILES: CCOC(=O)C1=C(c2ccccc2)N=c2sc(=Cc3cc(C)n(-c4ccc(F)cc4)c3C)c(=O)n2C1c1cccc(OC)c1OC (centres undefined)
- Diameter of inhibition zone: 0 mm

SMILES: COc1ccc(C2=C(c3ccc(OC)cc3)C3(c4ccccc4)C(=O)C2(c2ccccc2)C2C(=O)N(c4ccc(C)cc4)C(=O)C23)cc1 (centres undefined)
- Diameter of inhibition zone: 0 mm

SMILES: O=C(O)C1Cc2c([nH]c3ccccc23)C(c2ccc(Cl)cc2Cl)N1 (centres undefined)
- Diameter of inhibition zone: 0 mm

SMILES: COc1ccc(-c2c(C)nn3c(N)c(C#N)cnc23)cc1OC
- Diameter of inhibition zone: 0 mm

SMILES: CCOC(=O)c1c(NC(=O)c2ccccc2)sc2c(O)c(CN(CC)CC)ccc12
- Diameter of inhibition zone: 0 mm

SMILES: Cc1cc(C=C2SC(=Nc3ccccc3)N(C3CCCC3)C2=O)c(C)n1-c1ccc(Cl)cc1
- Diameter of inhibition zone: 0 mm

SMILES: CCN1CCCC1CNc1[nH]cnc2c3cc(Cl)ccc3nc1-2 (centres undefined)
- Diameter of inhibition zone: 0 mm

SMILES: COc1ccc(Br)cc1C1Nc2ccc3ccccc3c2C2=C1C(=O)CC(c1ccccc1)C2 (centres undefined)
- Diameter of inhibition zone: 0 mm

SMILES: CCOC(=O)c1cnc2c(C)cc(C)cc2c1Nc1ccc(OC)c(OC)c1
- Diameter of inhibition zone: 0 mm

SMILES: Fc1ccc2[nH]c3c(NCCCN4CCOCC4)ncnc3c2c1
- Diameter of inhibition zone: 0 mm

SMILES: c1ccc(Cn2c(N=Nc3c(Nc4ccccc4)ccc4ccccc34)nc3ccccc32)cc1
- Diameter of inhibition zone: 1 mm

SMILES: CCOC(=O)c1c(C)n(-c2ccc(Cl)cc2)c2ccc(OC(=O)C=Cc3ccccc3)cc12
- Diameter of inhibition zone: 0 mm

SMILES: CCc1ccc(Nc2cc(C)c3ccc(O)cc3n2)cc1.Cl
- Diameter of inhibition zone: 0 mm

SMILES: CCCc1c(CC)c(=N)c2ccccc2n1C
- Diameter of inhibition zone: 0 mm

SMILES: CCOC(=O)c1cnc2ccc(CC)cc2c1O
- Diameter of inhibition zone: 0 mm

SMILES: CSC1=NC(=Nc2c(C)cccc2C)C2(CCC(C(C)(C)C)CC2)N1c1ccc(Cl)cc1 (centres undefined)
- Diameter of inhibition zone: 0 mm

SMILES: CCN(CC)CCNc1ccnc2cc(Cl)ccc12
- Diameter of inhibition zone: 0 mm

SMILES: Cc1ccc(-c2cc3nc4c(c(O)n3n2)CCCC4)cc1
- Diameter of inhibition zone: 0 mm

SMILES: CN(C)c1ccc(C(O)(c2ccc(N(C)C)cc2)c2ccc(N(C)C)cc2)cc1 [METHYLROSANILINE]
- Diameter of inhibition zone: 0 mm

SMILES: Cc1ccc(-c2cc3c(nn2)-c2ccccc2C3=O)cc1
- Diameter of inhibition zone: 0 mm

SMILES: CSc1ccccc1C(=O)Nc1nc(-c2ccccn2)cs1
- Diameter of inhibition zone: 3 mm

SMILES: Cc1cc(C)cc(Nc2cc(C)nc3nc(C(F)(F)F)nn23)c1
- Diameter of inhibition zone: 0 mm

SMILES: Cc1ccc(N2C3c4ccccc4N(S(=O)(=O)c4ccc(C)cc4)C2c2ccccc2N3S(=O)(=O)c2ccc(C)cc2)cc1
- Diameter of inhibition zone: 0 mm
